# How the values were obtained:
# Assay type in all cases: in vivo
# [1] = test system: STZ-induced diabetic mice; assay: Blood glucose level in STZ-induced diabetic mice (Example 1.1)
# Experimental: Wide-type male C57BL/6 mice were rendered diabetic by multiple intraperitoneal injection of streptozotocin (STZ, 40 mg/Kg/day for 5 days, day 1 to day 5). […] For animals treated with insulin, insulin was administered subcutaneously 90 minutes before blood glucose measurement. Non-fasting blood glucose level was measured on days 6, 15, and 25, whereas fasting blood glucose (i.e., blood glucose level after fasting for 12 hrs fasting) was measured on days 40 and 50.
# Results are illustrated in FIG. 1.
# [2] = test system: NIDDM mice; assay: Fasting blood glucose level in NIDDM (db/db) mice, 44 days treatment (Example 1.2)
# Experimental: (§1) NIDDM mice and db/m+ mice (the sham control) were acclimated at least one week and then grouped for treatment when the average blood glucose value was ≥350 mg/dl after 6-hr fasting. […] Blood glucose and glycated haemoglobin (HbA1c) levels were measured on designated days after 6-hr fasting. Body weight of each test animal was also measured during the study period.
# For comparison, a group of 5 db/m+ (C57BLKS/J Lar-m+/+Lepr^db) mice were used as the sham control. Blood glucose levels were measured on day 0 (before treatment), and on days 15, 30, and 45 in the 6-hr fasting animals. Results are illustrated in FIG. 2.
# [3] = test system: NIDDM mice; assay: Fasting blood glucose level in NIDDM (db/db) mice, R-VPM and/or metformin, 42 days (Example 2.1); conditions: for blood glucose level, % of day 0: 6-hr fasting; for reduction of blood glucose level compared with the vehicle group: metformin 300 mg/Kg; for effect on blood glucose level on its own: low dose, 15 mg/Kg, HCl
# Experimental: as §1
# (§2) For comparison, a group of 8 db/m+ (C57BLKS/J Lar-m+/+Lepr^db) mice were used as the sham control. Levels of blood glucose and HbA1c were respectively measured on day 0 (before treatment), and on day 15, 29 and 43 in the 6-hr fasting animals.
# In Table 1, blood glucose level in each treatment group was expressed as % of the control, which was the blood glucose level on day 0 and was taken to be 100%.
# [4] = test system: NIDDM mice; assay: Glycated haemoglobin (HbA1c) level in NIDDM (db/db) mice, R-VPM and/or metformin (Example 2.2); conditions: for C = B − A, HbA1c level minus vehicle / HbA1c level relative to day 0 = 100: metformin 300 mg/Kg once daily
# Experimental: as §1, §2
# Another common indicator, glycated haemolglobin (HbA1c), which reflects average blood glucose levels over a duration was also measured in the present study. HbA1c develops when haemolglobin, a protein within red blood cells that carries oxygen throughout the body joins with glucose in the blood and becomes “glycated.” Since red blood cells in a human body survive for about 8-12 weeks before renewal, thus, the level of HbA1c gives an overall picture of average blood sugar levels over such period.
# [5] = metformin 300 mg/Kg once daily, day 15
# [6] = metformin 300 mg/Kg once daily, day 29
# [7] = metformin 300 mg/Kg once daily, day 43
compound,measurement,setting,value
"COc1ccc(CCN(C)CCCC(C#N)(c2ccc(OC)c(OC)c2)C(C)C)cc1OC (racemic) [VPM, 2-(3,4-dimethoxyphenyl)-5-[2-(3,4-dimethoxyphenyl)ethylmethylamino]-2-propan-2-ylpentanenitrile, reference compound]",effect on fasting or non-fasting blood glucose level (FIG. 1),"[1]; 25 or 35 mg/Kg, bid, oral",had no effects
same,effect on reduction of fasting blood glucose level (FIG. 2),"[2]; 30 mg/Kg, bid","neither racemic verapamil HCl (30 mg/Kg, bid) nor (S)-(−)-verapamil HCl, possessed any effect"
"CN(C)C(=N)N=C(N)N [metformin, reference compound]",effect on level of fasting blood glucose (FIG. 2),[2]; metformin 300 mg/Kg,reduced the level of fasting blood glucose
same,"C = B − A, blood glucose level minus vehicle",[3]; [5],−31.8%
same,"blood glucose level, % of day 0",[3]; [5],65.3%
same,"C = B − A, blood glucose level minus vehicle",[3]; [6],−12.8%
same,"blood glucose level, % of day 0",[3]; [6],103.6%
same,"C = B − A, blood glucose level minus vehicle",[3]; [7],−12.8%
same,"blood glucose level, % of day 0",[3]; [7],108.8%
same,reduction of blood glucose level compared with the vehicle group,[3]; day 15,about 31.8%
same,reduction of blood glucose level compared with the vehicle group,[3]; day 29,~12.8%
same,reduction of blood glucose level compared with the vehicle group,[3]; day 43,~12.8%
same,effect on blood glucose levels (FIG. 3),"[3]; metformin, days 15, 29 and 43",could reduce the blood glucose levels
same,effect on HbA1c level (FIG. 4),[4]; metformin,significantly reduce HbA1c level
same,"C = B − A, HbA1c level minus vehicle",[4]; day 15,−5.5
same,HbA1c level relative to day 0 = 100,[4]; day 15,114.7
same,"C = B − A, HbA1c level minus vehicle",[4]; day 29,−2.5
same,HbA1c level relative to day 0 = 100,[4]; day 29,124.9
same,"C = B − A, HbA1c level minus vehicle",[4]; day 43,−3
same,HbA1c level relative to day 0 = 100,[4]; day 43,133
"COc1ccc(CCN(C)CCC[C@](C#N)(c2ccc(OC)c(OC)c2)C(C)C)cc1OC.Cl [R-VMP, (R)-(+)-verapamil HCl]","potency in reducing the level of fasting blood glucose, compared between enantiomers (FIG. 1)","[1]; oral, bid, fasting 12 hrs, days 40 and 50",relatively more potent than (S)-(−)-verapamil HCl
same,dose at which the compound alone is effective in reducing blood glucose level,[1]; taken together of the findings in the working examples,"≥ 25 mg/Kg, bid"
same,effect on fasting blood glucose level compared with control vehicle NIDDM mice (FIG. 2),"[2]; 50 and 75 mg/Kg, bid",reduced the fasting blood glucose level
same,"E = D − A, blood glucose level minus vehicle","[3]; R-VMP 15 mg/Kg, bid, day 15",2.3%
same,"blood glucose level, % of day 0","[3]; R-VMP 15 mg/Kg, bid, day 15",99.4%
same,"E = D − A, blood glucose level minus vehicle","[3]; R-VMP 15 mg/Kg, bid, day 29",5.2%
same,"blood glucose level, % of day 0","[3]; R-VMP 15 mg/Kg, bid, day 29",121.6%
same,"E = D − A, blood glucose level minus vehicle","[3]; R-VMP 15 mg/Kg, bid, day 43",−6.6%
same,"blood glucose level, % of day 0","[3]; R-VMP 15 mg/Kg, bid, day 43",115%
same,"E = D − A, blood glucose level minus vehicle","[3]; R-VMP 30 mg/Kg, bid, day 15",−9.4%
same,"blood glucose level, % of day 0","[3]; R-VMP 30 mg/Kg, bid, day 15",87.7%
same,"E = D − A, blood glucose level minus vehicle","[3]; R-VMP 30 mg/Kg, bid, day 29",−12.9%
same,"blood glucose level, % of day 0","[3]; R-VMP 30 mg/Kg, bid, day 29",103.5%
same,"E = D − A, blood glucose level minus vehicle","[3]; R-VMP 30 mg/Kg, bid, day 43",−21.9%
same,"blood glucose level, % of day 0","[3]; R-VMP 30 mg/Kg, bid, day 43",99.7%
same,"E = D − A, blood glucose level minus vehicle","[3]; R-VMP 50 mg/Kg, bid, day 15",−14.8%
same,"blood glucose level, % of day 0","[3]; R-VMP 50 mg/Kg, bid, day 15",82.3%
same,"E = D − A, blood glucose level minus vehicle","[3]; R-VMP 50 mg/Kg, bid, day 29",−22%
same,"blood glucose level, % of day 0","[3]; R-VMP 50 mg/Kg, bid, day 29",94.4%
same,"E = D − A, blood glucose level minus vehicle","[3]; R-VMP 50 mg/Kg, bid, day 43",−22.9%
same,"blood glucose level, % of day 0","[3]; R-VMP 50 mg/Kg, bid, day 43",98.7%
same,effect on blood glucose levels (FIG. 3),"[3]; higher dose, 30 or 50 mg/Kg, bid",could reduce the blood glucose levels
same,effect on blood glucose level on its own,[3]; bid,possessed no treatment effect
same,effect on blood glucose level on its own,"[3]; bid, listed as R-VPM",ineffective
same,effect on HbA1c level (FIG. 4),"[4]; 15 mg/Kg, bid",no effect
same,effect on HbA1c level (FIG. 4),"[4]; 30 mg/Kg, bid",mild reduction
same,"E = D − A, HbA1c level minus vehicle","[4]; R-VMP 15 mg/Kg, bid, day 15",−2.5
same,"E = D − A, HbA1c level minus vehicle","[4]; R-VMP 15 mg/Kg, bid, day 29",0.9
same,"E = D − A, HbA1c level minus vehicle","[4]; R-VMP 15 mg/Kg, bid, day 43",−3.8
same,"E = D − A, HbA1c level minus vehicle","[4]; R-VMP 30 mg/Kg, bid, day 15",−1
same,"E = D − A, HbA1c level minus vehicle","[4]; R-VMP 30 mg/Kg, bid, day 29",0.1
same,"E = D − A, HbA1c level minus vehicle","[4]; R-VMP 30 mg/Kg, bid, day 43",−12.8
same,"E = D − A, HbA1c level minus vehicle","[4]; R-VMP 50 mg/Kg, bid, day 15",−4.5
same,"E = D − A, HbA1c level minus vehicle","[4]; R-VMP 50 mg/Kg, bid, day 29",−3.7
same,"E = D − A, HbA1c level minus vehicle","[4]; R-VMP 50 mg/Kg, bid, day 43",−10.5
"COc1ccc(CCN(C)CCC[C@@](C#N)(c2ccc(OC)c(OC)c2)C(C)C)cc1OC.Cl [S-VPM, (S)-(−)-verapamil HCl]",effect on reduction of fasting blood glucose level (FIG. 2),[2]; dose not printed in the sentence (bid),"neither racemic verapamil HCl (30 mg/Kg, bid) nor (S)-(−)-verapamil HCl, possessed any effect"
insulin [reference compound],effect on level of non-fasting or fasting blood glucose (FIG. 1),[1]; insulin subcutaneously 90 minutes before measurement,capable of reducing

# Reference: patent US10278943B2, “Method of treating hyperglycemia” (Center Laboratories, Inc., priority 2016, dated 2019)
